Data as given in ChEMBL document CHEMBL1201862, “PubChem BioAssay data set” (2004).
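How tested: cells in 96-well plates exposed to compound for 48 hours at five concentrations. The concentration for 50% growth inhibition is given as GI50.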 Activity calls are given as the source filed them. Cut-off read from the data, not from the text of the source: active = GI50 up to about 1.1 µM and inactive = higher.

Legend:
Assay in all cases: DTP human tumour cell line panel, 48 h
SW-620 = tested on: SW-620
RXF 393 = tested on: RXF 393
EKVX = tested on: EKVX
SK-MEL-5 = tested on: SK-MEL-5
UACC-62 = tested on: UACC-62
KM12 = tested on: KM12
A498 = tested on: A498
CCRF-CEM = tested on: CCRF-CEM
SN12C = tested on: SN12C
HT-29 = tested on: HT-29
CAKI-1 = tested on: CAKI-1
BT-549 = tested on: BT-549
NCI-H23 = tested on: NCI-H23
RPMI-8226 = tested on: RPMI-8226
A549 = tested on: A549
SNB-19 = tested on: SNB-19
HCT-116 = tested on: HCT-116
MDA-MB-231 = tested on: MDA-MB-231
LOX IMVI = tested on: LOX IMVI
SK-OV-3 = tested on: SK-OV-3
Malme-3M = tested on: Malme-3M
786-0 = tested on: 786-0
NCI/ADR-RES = tested on: NCI/ADR-RES
IGROV-1 = tested on: IGROV-1
HOP-62 = tested on: HOP-62
HCT-15 = tested on: HCT-15
NCI-H460 = tested on: NCI-H460
COLO 205 = tested on: COLO 205
MDA-N = tested on: MDA-N
UACC-257 = tested on: UACC-257
SF-539 = tested on: SF-539
NCI-H226 = tested on: NCI-H226
PC-3 = tested on: PC-3
OVCAR-3 = tested on: OVCAR-3
MOLT-4 = tested on: MOLT-4
ACHN = tested on: ACHN
NCI-H522 = tested on: NCI-H522
UO-31 = tested on: UO-31
T47D = tested on: T47D
M14 = tested on: M14
HCC 2998 = tested on: HCC 2998
K562 = tested on: K562
SK-MEL-2 = tested on: SK-MEL-2
SR = tested on: SR
TK-10 = tested on: TK-10
Hs-578T = tested on: Hs-578T
SF-295 = tested on: SF-295
MDA-MB-435 = tested on: MDA-MB-435
HOP-92 = tested on: HOP-92
OVCAR-8 = tested on: OVCAR-8
OVCAR-4 = tested on: OVCAR-4
SF-268 = tested on: SF-268
OVCAR-5 = tested on: OVCAR-5
U-251 = tested on: U-251
SK-MEL-28 = tested on: SK-MEL-28
DU-145 = tested on: DU-145
HL-60 = tested on: HL-60
SNB-75 = tested on: SNB-75

`Cn1c(N=[N+]=[N-])cc(=O)n(C)c1=O` was tested, and the GI50 (SW-620) was > 100 µM (inactive), the GI50 (RXF 393) was > 100 µM (inactive) and the GI50 (EKVX) was > 100 µM (inactive). For the same molecule, the GI50 (SK-MEL-5) was > 100 µM (inactive), the GI50 (UACC-62) was > 100 µM (inactive) and the GI50 (KM12) was > 100 µM (inactive). The GI50 (A498) was > 100 µM (inactive), the GI50 (CCRF-CEM) was > 100 µM (inactive) and the GI50 (SN12C) was > 100 µM (inactive). The GI50 (HT-29) was > 100 µM (inactive), the GI50 (CAKI-1) was > 100 µM (inactive) and the GI50 (BT-549) was > 100 µM (inactive). For the same molecule, the GI50 (NCI-H23) was > 100 µM (inactive), the GI50 (RPMI-8226) was > 100 µM (inactive) and the GI50 (A549) was > 100 µM (inactive). For the same molecule, the GI50 (SNB-19) was > 100 µM (inactive), the GI50 (HCT-116) was > 100 µM (inactive) and the GI50 (MDA-MB-231) was > 100 µM (inactive). The GI50 (LOX IMVI) was > 100 µM (inactive), the GI50 (SK-OV-3) was > 100 µM (inactive) and the GI50 (Malme-3M) was > 100 µM (inactive). The GI50 (786-0) was > 100 µM (inactive), the GI50 (NCI/ADR-RES) was > 100 µM (inactive) and the GI50 (IGROV-1) was > 100 µM (inactive). The GI50 (HOP-62) was > 100 µM (inactive), the GI50 (HCT-15) was greater than 100 µM and the GI50 (NCI-H460) was > 100 µM (inactive). For the same molecule, the GI50 (COLO 205) was > 100 µM (inactive), the GI50 (MDA-N) was > 100 µM (inactive) and the GI50 (UACC-257) was > 100 µM (inactive). For the same molecule, the GI50 (SF-539) was > 100 µM (inactive), the GI50 (NCI-H226) was > 100 µM (inactive) and the GI50 (PC-3) was > 100 µM (inactive). The GI50 (OVCAR-3) was > 100 µM (inactive), the GI50 (MOLT-4) was > 100 µM (inactive) and the GI50 (ACHN) was > 100 µM (inactive). The GI50 (NCI-H522) was > 100 µM (inactive), the GI50 (UO-31) was > 100 µM (inactive) and the GI50 (T47D) was > 100 µM (inactive). For the same molecule, the GI50 (M14) was > 100 µM (inactive), the GI50 (HCC 2998) was > 100 µM (inactive) and the GI50 (K562) was > 100 µM (inactive). For the same molecule, the GI50 (SK-MEL-2) was > 100 µM (inactive), the GI50 (SR) was > 100 µM (inactive) and the GI50 (TK-10) was > 100 µM (inactive). The GI50 (Hs-578T) was > 100 µM (inactive), the GI50 (SF-295) was > 100 µM (inactive) and the GI50 (MDA-MB-435) was > 100 µM (inactive). For the same molecule, the GI50 (HOP-92) was > 100 µM (inactive), the GI50 (OVCAR-8) was > 100 µM (inactive) and the GI50 (OVCAR-4) was > 100 µM (inactive). The GI50 (SF-268) was > 100 µM (inactive), the GI50 (OVCAR-5) was > 100 µM (inactive) and the GI50 (U-251) was > 100 µM (inactive).

In the case of `c1ccc2c(c1)N=C(NC1CCCCC1)CCN2`, the GI50 (SW-620) is reported as > 100 µM (inactive), the GI50 (SK-MEL-28) is reported as > 100 µM (inactive) and the GI50 (RXF 393) is reported as > 100 µM (inactive). For the same molecule, the GI50 (EKVX) was > 100 µM (inactive), the GI50 (SK-MEL-5) was > 100 µM (inactive) and the GI50 (UACC-62) was > 100 µM (inactive). For the same molecule, the GI50 (KM12) was > 100 µM (inactive), the GI50 (A498) was > 100 µM (inactive) and the GI50 (CCRF-CEM) was > 100 µM (inactive). The GI50 (SN12C) was > 100 µM (inactive), the GI50 (HT-29) was 77.6 µM (inactive) and the GI50 (CAKI-1) was > 100 µM (inactive). The GI50 (BT-549) was > 100 µM (inactive), the GI50 (DU-145) was > 100 µM (inactive) and the GI50 (NCI-H23) was > 100 µM (inactive). The GI50 (RPMI-8226) was > 100 µM (inactive), the GI50 (A549) was > 100 µM (inactive) and the GI50 (SNB-19) was > 100 µM (inactive). For the same molecule, the GI50 (HCT-116) was > 100 µM (inactive), the GI50 (MDA-MB-231) was > 100 µM (inactive) and the GI50 (SK-OV-3) was > 100 µM (inactive). For the same molecule, the GI50 (Malme-3M) was > 100 µM (inactive), the GI50 (786-0) was > 100 µM (inactive) and the GI50 (HL-60) was > 100 µM (inactive). The GI50 (NCI/ADR-RES) was > 100 µM (inactive), the GI50 (IGROV-1) was 33.1 µM (inactive) and the GI50 (HOP-62) was > 100 µM (inactive). The GI50 (HCT-15) was greater than 100 µM, the GI50 (NCI-H460) was > 100 µM (inactive) and the GI50 (COLO 205) was > 100 µM (inactive). The GI50 (MDA-N) was > 100 µM (inactive), the GI50 (UACC-257) was > 100 µM (inactive) and the GI50 (SNB-75) was 22 µM (inactive). The GI50 (NCI-H226) was > 100 µM (inactive), the GI50 (PC-3) was > 100 µM (inactive) and the GI50 (OVCAR-3) was > 100 µM (inactive). For the same molecule, the GI50 (MOLT-4) was 63.2 µM (inactive), the GI50 (ACHN) was > 100 µM (inactive) and the GI50 (NCI-H522) was > 100 µM (inactive). For the same molecule, the GI50 (UO-31) was > 100 µM (inactive), the GI50 (M14) was > 100 µM (inactive) and the GI50 (K562) was 81.3 µM (inactive). For the same molecule, the GI50 (SK-MEL-2) was > 100 µM (inactive), the GI50 (TK-10) was > 100 µM (inactive) and the GI50 (Hs-578T) was > 100 µM (inactive). The GI50 (SF-295) was > 100 µM (inactive), the GI50 (MDA-MB-435) was > 100 µM (inactive) and the GI50 (OVCAR-8) was > 100 µM (inactive). For the same molecule, the GI50 (OVCAR-4) was > 100 µM (inactive), the GI50 (SF-268) was > 100 µM (inactive) and the GI50 (OVCAR-5) was > 100 µM (inactive). The GI50 (U-251) was > 100 µM (inactive).
